Measurements reported in patent US7378387B2, “Method of suppressing immune response by reducing intracellular content of glutathione in macrophages and monocytes” (Ajinomoto Co., Inc., priority 1997, dated 2008).
Positions of bridges follow the written chain, without caps; N, C: chain ends. Residues, ends and D or L forms follow the SMILES beside them. Chains are numbered I, II in the order given.

Tests used:
[1] = test system: macrophage-like cells from tissues of rheumatoid arthritis patients; test: Intracellular GSH by ACAS in macrophage-like cells from tissues of rheumatoid arthritis patients (Example 17); assay type: cell-based, human; conditions: 3 hours; for relative ratio of oxidative macrophages (reduced amount of intracellular glutathione) compared with saline-added group: added at 2 mM; for induction of oxidative macrophage with the reduced amount of intracellular glutathione: added at 2 μM
Protocol: Synovial tissue was aseptically sampled from tissues resected during joint surgery. The sampled synovial tissue was rinsed in phosphate buffer, from which the surface was peeled off in a petri dish containing the same phosphate buffer. Then, the resulting synovial tissue was cut into pieces with a pair of scissors. To the pieces were added 2% hyaluronidase (manufactured by Sigma), 0.2% DNase (derived from bovine pancreas) and 5% collagenase, for enzymatic treatment at 37° C. for 2 hours. After discarding the resulting debris, a cell fraction recovered by centrifugation was adjusted to 5×10^5 cells/ml in a phenol red-free DMEM culture medium supplemented with 10% FCS (manufactured by Nikken Biology Co.). For 3 hours, the cells were allowed to adhere to the plastic surface. Plastic surface adherent macrophage-like cells harvested with a rubber policeman were then subjected to rinsing in combination with centrifugation three times using the culture medium under ice cooling. The resulting cells were designated as synovial tissue-derived macrophages and were then subjected to the following experiments.
By the same manner as in Example 3, macrophage-like cells were collected from tissues of rheumatoid arthritis patients, and were then suspended and adjusted in a phenol red-free RPMI 1640 culture medium supplemented with 10% fetal calf serum to 3×10^6 cells/ml. The suspension was divided in 100-μl portions on Lab-Tek Chamber Slide (#136439; manufactured by NUNC, CO.), for culturing in 5% CO2 at 37° C. for 3 hours; after discarding the nonadherent cells, the 200-μl serum-free culture medium further containing any of the following chemical agents was fed to the resulting culture, for reaction for 3 hours; and then, the resulting culture was rinsed three times, followed by addition of the serum-free culture medium of 200 μl and addition of monochlorobimane to a final concentration of 10 μM, for reaction for 30 minutes. The amount of intracellular GSH was assayed by imaging analysis with an ACAS system (manufactured by Meridian Co.).

[2] = test system: adjuvant-induced arthritis; test: Adjuvant-induced arthritis (AA) in rats, joint swelling (Examples 18 and 19); assay type: in vivo, Lewis rats; conditions: Table 4
Protocol: Adjuvant-induced arthritis was triggered in Lewis rats in a conventional manner; and the effects of chemical agents were examined in the animals. Adjuvant-induced arthritis is well known as an experimental arthritis inducible in rats [Taurog et al., Meth. Enzymol. 162, 339-355 (1988)]. […] An adjuvant is administered at 1 mg/0.1 ml per rate at a site of caudal root. The edema reaches its peak about 2 to 3 weeks after the administration of the adjuvant. The edema is triggered by inflammatory infiltration of monocytes. Swollen joints are measured with a micrometer every day; comparing the diameters of the joints prior to and after adjuvant administration and after initiation of the treatment with chemical agents with the diameters of the joints in the control group, the effects of the chemical agents were expressed as the ratio in % of joint swelling in the experimental groups to joint swelling in the control group. The effects were determined on day 15 after adjuvant administration. The chemical agents were given, starting the day next to the day of adjuvant administration, and every 3 days thereafter.
A single dose is 1 mg/kg for (NAC)2 and (NAC-OMe)2; 100 mg/kg for NAC; and 0.1 mg/kg for lentinan.
Adjuvant-induced arthritis was induced in Lewis rats in a conventional manner. In the same manner as in Example 11, the effects of chemical agents were examined in these rats. The conditions were the same as described above.

[3] = test system: spontaneous onset of insulin-dependent diabetes mellitus; test: Onset of diabetes mellitus in NOD mice dosed at age 9 to 11 weeks (Example 25); assay type: in vivo; conditions: nine times
Excerpt: NOD mice purchased from Nippon Clair, Co. were naturally mated together. Among the off spring mice, a colony of NOD mice with a high frequency of the spontaneous onset of insulin-dependent diabetes mellitus was established. Female NOD mice from the colony were used for the present experiment. Chemical agents were orally or intraperitoneally administered to the NOD mice aged 9 to 11 weeks three times per week, in total nine times; and based on the test results of urine glucose, positive or negative, the onset of diabetes mellitus was followed once per week. Urine glucose was detected, using Uropaper (BM Test Glucose 5000, manufactured by Yamanouchi Pharmaceuticals, Co. Ltd.). The onset was judged on week 22; the doses were the same as in Example 24.

[4] = test system: spontaneous onset of insulin-dependent diabetes mellitus; test: Onset of diabetes mellitus in NOD mice dosed at age 3 to 6 and 9 to 11 weeks (Example 24); assay type: in vivo; conditions: doses as in the table line, 15 times in total, judged on week 22, saline 60
Excerpt: NOD mice purchased from Nippon Clair, Co. were naturally mated together. Among the off spring mice, a colony of NOD mice with a high frequency of the spontaneous onset of insulin-dependent diabetes mellitus was established. Female NOD mice from the colony were used for the present experiment. […] Urine glucose was detected, using Uropaper (BM Test Glucose 5000, manufactured by Yamanouchi Pharmaceuticals, Co. Ltd.). The onset was judged on week 22.

[5] = test system: reduced glutathione in intraperitoneal macrophages; test: Reduced glutathione in intraperitoneal macrophages of NOD mice by ACAS (Example 22); assay type: in vivo; conditions: doses given per substance
[6] = test system: insulin-non-dependent diabetes mellitus; test: Blood sugar level in db/db mice (Example 26); assay type: in vivo; conditions: intraperitoneal, age 4 to 9 weeks, three times per week; at satiation; saline 100
Excerpt: db/db mice purchased from Nippon Clair, Co. were naturally mated together. Among the off spring mice, a colony of db/db mice with a high frequency of the spontaneous onset of insulin-non-dependent diabetes mellitus was established. Male db/db mice from the colony were used for the present experiment. Chemical agents were intraperitoneally administered to the db/db mice aged 4 to 9 weeks three times per week, in total 18 times; and based on the level of blood sugar in the mice at satiation, the effects of the chemical agents on the improvement of the diseased conditions of insulin-non-dependent diabetes mellitus were followed once per week. The doses were the same as in Example 24.

[7] = test system: peritoneal exudate cells (macrophages); test: Induction of oxidative or reductive macrophages by administration, monochlorobimane/ACAS (Example 9); assay type: in vivo, DBA/2 mice; conditions: intraperitoneally 20 μg/0.5 ml/h each, twice a week for three weeks, 9-11 weeks of age
Protocol: This was clarified by harvesting peritoneal exudate cells 20 hours after the completion of the administration, adhering the cells to the plastic surface, then reacting the cells with 10 μM of monochlorobimane at 37° C. for 30 minutes, and analyzing the reaction product with ACAS. The increase in the amounts of oxidative macrophages can easily be determined visually from the fact that almost no reaction product with monochlorobimane is observed, namely, a gray or blue image is provided, and the increase in the amounts of reductive macrophages from the fact that a red or yellow image is provided respectively. […] Meanwhile, the same examination was conducted by harvesting peritoneal exudate cells after 20 hours of the administration of 2 mg of N-acetylcystine (NAC).

[8] = intraperitoneal, judged on week 22, doses as in Example 24, saline 67
[9] = intraperitoneal dosing on alternate days from age 3-4 weeks
[10] = oral dosing on alternate days from age 3-4 weeks

Compound	relative ratio of oxidative macrophages (reduced amount of intracellular glutathione) compared with saline-added group [1]	relative ratio of oxidative macrophages compared with saline-dosed NOD mice [5, 9]	relative ratio of oxidative macrophages compared with saline-dosed NOD mice [5, 10]	induction of oxidative macrophage with the reduced amount of intracellular glutathione [1]	induction of oxidative macrophages on ACAS [7]	further results
COC(=O)C(N)CCC(=O)NC(CS)C(=O)OC (stereo not shown) [γ-glutamylcysteine dimethyl ester]	same action was also observed	same action is also observed	–	–	–	Ratio in % of joint swelling in experimental groups to joint swelling in control group ([2]; intraperitoneal, 100 mg/kg): 120%; Frequency (%) of onset of diabetes mellitus [3, 8]: 55%; Frequency (%) of onset of diabetes mellitus ([4]; intraperitoneal): 10%; Frequency (%) of onset of diabetes mellitus ([4]; oral): 20%; Relative ratio % of blood sugar level, 6 weeks [6]: 85%; Relative ratio % of blood sugar level, 7 weeks [6]: 65%; Relative ratio % of blood sugar level, 8 weeks [6]: 60%
CCOC(=O)CNC(=O)[C@H](CS)NC(=O)CC[C@H](N)C(=O)OCC [glutathione diethyl ester]	same action was also observed	same action is also observed	same action is also observed	–	–	Ratio in % of joint swelling in experimental groups to joint swelling in control group ([2]; intraperitoneal, 100 mg/kg): 132%; Frequency (%) of onset of diabetes mellitus [3, 8]: 67%; Frequency (%) of onset of diabetes mellitus ([4]; intraperitoneal): 0%; Frequency (%) of onset of diabetes mellitus ([4]; oral): 0%; Relative ratio % of blood sugar level, 6 weeks [6]: 82%; Relative ratio % of blood sugar level, 7 weeks [6]: 62%; Relative ratio % of blood sugar level, 8 weeks [6]: 60%
CC(=O)N[C@@H](CSSC[C@H](NC(C)=O)C(=O)OCCCCO[N+](=O)[O-])C(=O)O [N,N′-diacetylcystine nitroxybutyl ester]	–	–	–	confirmed	induction of oxidative macrophages was confirmed	–
O=C(O)CCCC[C@@H]1CCSS1 (racemic) [lipoic acid]	–	same action is also observed	–	–	–	–
CC(=O)N[C@@H](CSSC[C@H](NC(C)=O)C(=O)OC(C)C)C(=O)OC(C)C [(NAC-OiPr)2, N,N′-diacetylcystine diisopropyl ester]	–	–	–	confirmed	induction of oxidative macrophages was confirmed	–
CC(=O)N[C@@H](CS)C(=O)OCCCCO[N+](=O)[O-] [N-acetylcysteine nitroxybutyl ester]	same action was also observed	same action is also observed	same action is also observed	–	–	–
COC(=O)[C@H](CSSC[C@H](NC(=O)[C@H](C)N)C(=O)OC)NC(=O)[C@H](C)N [(NAlaC-OMe)2, N,N′-di-L-alanylcystine dimethyl ester] (I: H-Ala-Cys-OMe / II: H-Ala-Cys-OMe; disulfide I:2-II:2)	–	–	–	confirmed	induction of oxidative macrophages was confirmed	Ratio in % of joint swelling in experimental groups to joint swelling in control group ([2]; intravenous): 45%; Frequency (%) of onset of diabetes mellitus ([3]; route not given, judged on week 22, saline 67): 11%
glutathione nitroxybutyl ester	same action was also observed	same action is also observed	same action is also observed	–	–	–
